The experiment deals with T1, Recombinant human EP300 containing the bromodomain (EP300-BD (1040-1161)) (Homo sapiens, UniProt Q09472).
T1 construct: Recombinant human EP300 bromodomain (EP300-BD (1040-1161)); made in house; host or cells: E. coli BL21-CodonPlus (DE3), modified pET vector
T1 sequence (Q09472 1040-1161): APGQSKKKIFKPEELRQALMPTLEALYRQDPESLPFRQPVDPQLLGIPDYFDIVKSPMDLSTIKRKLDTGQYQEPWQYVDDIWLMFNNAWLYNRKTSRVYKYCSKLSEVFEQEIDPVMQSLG
In words: EP300 Alphascreen binding assay. In a few lines: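 Displacement of a biotinylated acetyl-K56 histone H3 peptide from the N-His bromodomain construct (1040-1161) measured by AlphaScreen proximity, beads at 7.5 μg/ml final, read 60 min after addition. Protein, peptide and compound first incubated 1 h at room temperature, pH 7.5 HEPES buffer; IC50 by four-parameter logistic fit.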
Background: In Alpha technology, singlet oxygen from a donor bead excites a nearby acceptor bead.

The term IC50 denotes the point on the concentration scale where inhibition reaches its midpoint.

`Cc1noc(C)c1-c1cnc2c(c1)c(-c1ccc(C(=O)O)cc1Cl)cn2C(c1ccccn1)C1CCCC1` (centres unmarked) [P-0027, 3-chloro-4-(1-(cyclopentyl(pyridin-2-yl)methyl)-5-(3,5-dimethylisoxazol-4-yl)-1H-pyrrolo[2,3-b]pyridin-3-yl)benzoic acid]: the IC50 fell in the range of 0.1 to 1000 nM.

For `Cc1cc(-c2cn(C(c3ccccn3)C3CCCC3)c3ncc(-c4c(C)noc4C)cc23)ccc1C(=O)O` (centres unmarked) [P-0028, 4-(1-(cyclopentyl(pyridin-2-yl)methyl)-5-(3,5-dimethylisoxazol-4-yl)-1H-pyrrolo[2,3-b]pyridin-3-yl)-2-methylbenzoic acid], the IC50 was 0.1 to 1000 nM. To `Cc1noc(C)c1-c1cnc2c(c1)c(-c1ccc(C(=O)O)c(C(F)(F)F)c1)cn2C(c1ccccn1)C1CCCC1` (centres unmarked) [P-0029, 4-(1-(cyclopentyl(pyridin-2-yl)methyl)-5-(3,5-dimethylisoxazol-4-yl)-1H-pyrrolo[2,3-b]pyridin-3-yl)-2-(trifluoromethyl)benzoic acid] belongs 0.1 to 1000 nM. To `Cc1noc(C)c1-c1cnc2c(c1)c(-c1ccc(C(=O)O)c(O)c1)cn2C(c1ccccn1)C1CCCC1` (centres unmarked) [P-0030, 4-(1-(cyclopentyl(pyridin-2-yl)methyl)-5-(3,5-dimethylisoxazol-4-yl)-1H-pyrrolo[2,3-b]pyridin-3-yl)-2-hydroxybenzoic acid] belongs 1000 to 8000 nM; to `Cc1noc(C)c1-c1cnc2c(c1)c(-c1ccc(CC(=O)O)cc1)cn2C(c1ccccn1)C1CCCC1` (centres unmarked) [P-0031, 2-(4-(1-(cyclopentyl(pyridin-2-yl)methyl)-5-(3,5-dimethylisoxazol-4-yl)-1H-pyrrolo[2,3-b]pyridin-3-yl)phenyl)acetic acid], 0.1 to 1000 nM. To `Cc1noc(C)c1-c1cnc2c(c1)c(-c1ccc(C(C)(C)C(=O)O)cc1)cn2C(c1ccccn1)C1CCCC1` (centres unmarked) [P-0032, 2-(4-(1-(cyclopentyl(pyridin-2-yl)methyl)-5-(3,5-dimethylisoxazol-4-yl)-1H-pyrrolo[2,3-b]pyridin-3-yl)phenyl)-2-methylpropanoic acid] belongs 0.1 to 1000 nM.

On to `Cc1noc(C)c1-c1cnc2c(c1)c(-c1ccc(C3(C(=O)O)CC3)cc1)cn2C(c1ccccn1)C1CCCC1` (centres unmarked) [P-0033, 1-(4-(1-(cyclopentyl(pyridin-2-yl)methyl)-5-(3,5-dimethylisoxazol-4-yl)-1H-pyrrolo[2,3-b]pyridin-3-yl)phenyl)cyclopropane-1-carboxylic acid], for which the half-inhibitory concentration (IC50) lay in the range of 0.1 to 1000 nM.

`Cc1noc(C)c1-c1cnc2c(c1)c(-c1ccc(C(F)(F)C(=O)O)cc1)cn2C(c1ccccn1)C1CCCC1` (centres unmarked) [P-0034, 2-(4-(1-(cyclopentyl(pyridin-2-yl)methyl)-5-(3,5-dimethylisoxazol-4-yl)-1H-pyrrolo[2,3-b]pyridin-3-yl)phenyl)-2,2-difluoroacetic acid]: the IC50 was 0.1 to 1000 nM. To `COc1ncccc1-n1cc(-c2ccc(C(=O)O)cc2OC(F)(F)F)c2cc(-c3c(C)noc3C)cnc21` [P-0316, 4-(5-(3,5-dimethylisoxazol-4-yl)-1-(2-methoxypyridin-3-yl)-1H-pyrrolo[2,3-b]pyridin-3-yl)-3-(trifluoromethoxy)benzoic acid] belongs 0.1 to 1000 nM. To `Cc1ncccc1-n1cc(-c2ccc(C(=O)O)cc2OC(F)(F)F)c2cc(-c3c(C)noc3C)cnc21` [P-0317, 4-(5-(3,5-dimethylisoxazol-4-yl)-1-(2-methylpyridin-3-yl)-1H-pyrrolo[2,3-b]pyridin-3-yl)-3-(trifluoromethoxy)benzoic acid] belongs 0.1 to 1000 nM; to `Cc1noc(C)c1-c1cnc2c(c1)c(-c1ccc(C(=O)O)cc1OC(F)(F)F)cn2-c1cnn(C)c1` [P-0318, 4-(5-(3,5-dimethylisoxazol-4-yl)-1-(1-methyl-1H-pyrazol-4-yl)-1H-pyrrolo[2,3-b]pyridin-3-yl)-3-(trifluoromethoxy)benzoic acid], 0.1 to 1000 nM; to `Cc1noc(C)c1-c1cnc2c(c1)c(-c1ccc(C(=O)O)cc1OC(F)(F)F)cn2-c1cncnc1` [P-0319, 4-(5-(3,5-dimethylisoxazol-4-yl)-1-(pyrimidin-5-yl)-1H-pyrrolo[2,3-b]pyridin-3-yl)-3-(trifluoromethoxy)benzoic acid], 0.1 to 1000 nM. As for `Cc1noc(C)c1-c1cnc2c(c1)c(-c1ccc(C(=O)O)cc1OC(F)(F)F)cn2-c1cnc(N)nc1` [P-0320, 4-(1-(2-aminopyrimidin-5-yl)-5-(3,5-dimethylisoxazol-4-yl)-1H-pyrrolo[2,3-b]pyridin-3-yl)-3-(trifluoromethoxy)benzoic acid], the figure is 0.1 to 1000 nM; as for `Cc1noc(C)c1-c1cnc2c(c1)c(-c1ccc(C(=O)O)cc1OC(F)(F)F)cn2-c1cnc(N(C)C)nc1` [P-0321], 0.1 to 1000 nM. For the compound `Cc1noc(C)c1-c1cnc2c(c1)c(-c1ccc(C(=O)O)cc1OC(F)(F)F)cn2-c1ccc(C(=O)O)cc1` [P-0322, 4-(1-(4-carboxyphenyl)-5-(3,5-dimethylisoxazol-4-yl)-1H-pyrrolo[2,3-b]pyridin-3-yl)-3-(trifluoromethoxy)benzoic acid], the IC50 lay in the range of 0.1 to 1000 nM. To `Cc1noc(C)c1-c1cnc2c(c1)c(-c1ccc(C(=O)O)cc1OC(F)(F)F)cn2-c1ccc(C(N)=O)cc1` [P-0323, 4-(1-(4-carbamoylphenyl)-5-(3,5-dimethylisoxazol-4-yl)-1H-pyrrolo[2,3-b]pyridin-3-yl)-3-(trifluoromethoxy)benzoic acid] belongs 0.1 to 1000 nM; to `COc1cc(C(=O)O)ncc1-c1cn(-c2ccncc2Cl)c2ncc(-c3c(C)noc3C)cc12` [P-0324, 5-(1-(3-chloropyridin-4-yl)-5-(3,5-dimethylisoxazol-4-yl)-1H-pyrrolo[2,3-b]pyridin-3-yl)-4-methoxypicolinic acid], 0.1 to 1000 nM. As for `Cc1noc(C)c1-c1cnc2c(c1)c(-c1ccc(C(=O)O)cc1OCC(F)F)cn2[C@H]1CCOC1` [P-0325, (S)-3-(2,2-difluoroethoxy)-4-(5-(3,5-dimethylisoxazol-4-yl)-1-(tetrahydrofuran-3-yl)-1H-pyrrolo[2,3-b]pyridin-3-yl)benzoic acid], the IC50 was in the range of 0.1 to 1000 nM. As for `CCn1cc(-n2cc(-c3ccc(C(=O)O)cc3OCC(F)F)c3cc(-c4c(C)noc4C)cnc32)c(C)n1` [P-0326, 3-(2,2-difluoroethoxy)-4-(5-(3,5-dimethylisoxazol-4-yl)-1-(1-ethyl-3-methyl-1H-pyrazol-4-yl)-1H-pyrrolo[2,3-b]pyridin-3-yl)benzoic acid], the figure is 0.1 to 1000 nM; as for `Cc1noc(C)c1-c1cnc2c(c1)c(-c1c(F)cc(C(=O)O)cc1OCC(F)F)cn2-c1ccccc1` [P-0327, 3-(2,2-difluoroethoxy)-4-(5-(3,5-dimethylisoxazol-4-yl)-1-phenyl-1H-pyrrolo[2,3-b]pyridin-3-yl)-5-fluorobenzoic acid], 0.1 to 1000 nM. To `Cc1noc(C)c1-c1cnc2c(c1)c(-c1ccc(C(=O)O)cc1OCC(F)F)cn2-c1cnc(N2CCC2)nc1` [P-0328, 4-(1-(2-(azetidin-1-yl)pyrimidin-5-yl)-5-(3,5-dimethylisoxazol-4-yl)-1H-pyrrolo[2,3-b]pyridin-3-yl)-3-(2,2-difluoroethoxy)benzoic acid] belongs 0.1 to 1000 nM; to `CCOc1cc(C(=O)O)nc(OCC)c1-c1cn(-c2ccc(F)cc2F)c2ncc(-c3c(C)noc3C)cc12` [P-0329, 5-(1-(2,4-difluorophenyl)-5-(3,5-dimethylisoxazol-4-yl)-1H-pyrrolo[2,3-b]pyridin-3-yl)-4,6-diethoxypicolinic acid], 0.1 to 1000 nM; to `CCOc1cc(C(=O)O)c(F)cc1-c1cn(-c2ccc(F)cc2F)c2ncc(-c3c(C)noc3C)cc12` [P-0330, 4-(1-(2,4-difluorophenyl)-5-(3,5-dimethylisoxazol-4-yl)-1H-pyrrolo[2,3-b]pyridin-3-yl)-5-ethoxy-2-fluorobenzoic acid], 0.1 to 1000 nM. To `Cc1noc(C)c1-c1cnc2c(c1)c(-c1c(Cl)cc(C(=O)O)cc1OCC(F)F)cn2-c1cnc(N2CCC2)nc1` [P-0331, 4-(1-(2-(azetidin-1-yl)pyrimidin-5-yl)-5-(3,5-dimethylisoxazol-4-yl)-1H-pyrrolo[2,3-b]pyridin-3-yl)-3-chloro-5-(2,2-difluoroethoxy)benzoic acid] belongs 0.1 to 1000 nM; to `Cc1noc(C)c1-c1cnc2c(c1)c(-c1c(Cl)cc(C(=O)O)cc1OCC(F)F)cn2-c1ccccc1` [P-0332, 3-chloro-5-(2,2-difluoroethoxy)-4-(5-(3,5-dimethylisoxazol-4-yl)-1-phenyl-1H-pyrrolo[2,3-b]pyridin-3-yl)benzoic acid], 0.1 to 1000 nM; to `Cc1noc(C)c1-c1cnc2c(c1)c(-c1c(Cl)cc(C(=O)O)cc1OCC(F)F)cn2[C@H]1CCOC1` [P-0333, (S)-3-chloro-5-(2,2-difluoroethoxy)-4-(5-(3,5-dimethylisoxazol-4-yl)-1-(tetrahydrofuran-3-yl)-1H-pyrrolo[2,3-b]pyridin-3-yl)benzoic acid], 0.1 to 1000 nM. As for `Cc1noc(C)c1-c1cnc2c(c1)c(-c1ccc(C(=O)O)cc1OC1CCC1)cn2-c1ncccc1C#N` [P-0334, 4-(1-(3-cyanopyridin-2-yl)-5-(3,5-dimethylisoxazol-4-yl)-1H-pyrrolo[2,3-b]pyridin-3-yl)-3-cyclobutoxybenzoic acid], the half-maximal inhibitory concentration (IC50) was in the range of 0.1 to 1000 nM. For `Cc1noc(C)c1-c1cnc2c(c1)c(-c1ccc(C(=O)O)cc1OC(F)(F)F)cn2C1(CC#N)CCC1` [P-0335, 4-(1-(1-(cyanomethyl)cyclobutyl)-5-(3,5-dimethylisoxazol-4-yl)-1H-pyrrolo[2,3-b]pyridin-3-yl)-3-(trifluoromethoxy)benzoic acid], the concentration for half-maximal inhibition (IC50) lay in the range of 0.1 to 1000 nM.

For the compound `Cc1noc(C)c1-c1cnc2c(c1)c(-c1ccc(C(=O)O)cc1OC(C)C)cn2-c1ncccc1C#N` [P-0336, 4-(1-(3-cyanopyridin-2-yl)-5-(3,5-dimethylisoxazol-4-yl)-1H-pyrrolo[2,3-b]pyridin-3-yl)-3-isopropoxybenzoic acid], the IC50 was 0.1 to 1000 nM.

The values are drawn from patent US11446287B2, “Compounds and methods for EP300 or CBP modulation and indications therefor” (Opna Immuno-Oncology SA, priority 2019, dated 2022).
